Square brackets hold non-standard residues; d marks the D form. Ends that are not written are not given here. pY = N[C@@H](Cc1ccc(OP(=O)(O)O)cc1)C(=O)O
Test system: p110β/p85β-nicSH2
Assay: [γ32P]-ATP nitrocellulose-binding assay of PIP3 production
Type: biochemical, mouse
Method: or absence of 10 μM PDGF bis-phosphopeptide. Reactions were carried out with 1 μCi [γ32P]-ATP per reaction, with 100 μM ATP and 1 mg/ml total “brain lipids” or 1.5 mM diC8-PIP2/POPS vesicles for 60 min. The vesicle compositions are indicated.
(B) Integrated intensities of the spots using the “brain liposomes” (left panel) or diC8-PIP2/POPS liposomes (Invitrogen) (right panel), quantitated with the ImageQuant software.
The bars represent standard deviations of the mean for two measurements. The hatched bars are for reactions in the presence of PDGF bis-phosphopeptide.
(C) SDS PAGE analysis of the proteins used for the assays in (A and B). Samples of 10 μl of […] protein solutions for each of the reaction were analyzed on a 4-12% NuPAGE Novex Bis-Tris gel in MES running buffer (Invitrogen). The upper band is the p110 subunit and the lower band is the regulatory subunit.
(D) Stereo view of the contacts between the p85β-cSH2 domain and the C-lobe of the kinase domain. The Tyr677-p85β (red) inserts into a hydrophobic groove between the two elbows kα7/kα8 (yellow) and kα11/kα12 (orange). Tyr677-p85β also makes a potential hydrogen bond with Ser1046-p110β (dashed black line).
To determine the effect of receptor tyrosine kinases (RTK) on PI3K activity, the assays were performed in absence or presence of 10 μM pY peptides:
7. Mm-PDGFR (pY2): ESDGG(pY)MDMSKDESID(pY)VPMLDMKGDIKYADIE (residues
10. Hs-PDGFR-pY740+5 position 5 mutated to P: DGG(pY)MDMSP
11. Hs-PDGFR-pY740+5 position 5 mutated to A: DGG(pY)MDMSA
12. Hs-PDGFR-pY740+5 position 5 mutated to S: DGG(pY)MDMSS
13. […]
The reactions were stopped by addition of 10 μl of stop/detection buffer (1X Stop & Detect Buffer B, 4 nM ADP Alexa633 Tracer, 109 μg/ml ADP2 antibody), followed by 1 h equilibration. Fluorescence polarization was measured on a PHERAStar plus HTS microplate reader (BMG Labtech), using a fluorescence polarization module with excitation centered at 633 nm and emission at 650 nm. […]
The PIP3 lipids produced in PI3K in vitro assays as described above were also measured by a mass-spectrometry based assay (Clark et al.). […]

For “ESDGG[pY]MDMSKDESID[pY]VPMLDMKGDIKYADIE [pY2, bis-phosphopeptide (PDGFR 735–767, with pY740 and pY751)]”, the “fold activation by pY2, PIP3 formation, brain lipids” value (p110β/p85β-nicSH2, 10 μM pY2, 1 mg/ml brain lipids (5% PIP2, 20% PS, 15% PC, 45% PE, 5% sphingomyelin, 10% cholesterol), 100 μM ATP, 60 min) was 10 fold, the “fold activation by pY2, PIP3 formation, diC8-PIP2/POPS liposomes” value (p110β/p85β-nicSH2, 10 μM pY2, 1.5 mM diC8-PIP2/POPS, 100 μM ATP, 60 min) was 16 fold and the “effect on lipid kinase activity of p110β SH2-containing complexes, PIP3 formation” value (radioactive phosphorylation assay, Figures S2A–S2C) was “stimulates lipid kinase activity”.

Reference: publication PMC3670040, “Structure of Lipid Kinase p110β/p85β Elucidates an Unusual SH2-Domain-Mediated Inhibitory Mechanism” (Molecular Cell, 2011)
